Reference: US12667602B2, “Composition for preventing, treating or alleviating diabetes, comprising LGI3-derived peptide as an active ingredient” (CHUNG-ANG UNIVERSITY INDUSTRY-ACADEMIC COOPERATION …, priority 2019, dated 2026)
≈ marks a conversion by molar mass, not a printed value. Residues, ends and D or L forms follow the SMILES beside them.

Assay: Solubility in water
Type: physicochemical

solubility	Compound
1000 µg/mL (≈ 549 µM)	CC(C)C[C@H](NC(=O)[C@H](CCC(=O)O)NC(=O)[C@H](CCC(N)=O)NC(=O)[C@H](Cc1ccccc1)NC(=O)[C@H](CCCNC(=N)N)NC(=O)[C@@H](NC(=O)[C@H](Cc1ccccc1)NC(=O)[C@H](CCCCN)NC(=O)[C@H](CCC(N)=O)NC(=O)[C@H](CCCNC(=N)N)NC(=O)CNC(=O)[C@H](CCC(=O)O)NC(=O)[C@@H](N)CC(=O)O)C(C)C)C(=O)N[C@@H](C)C(=O)N[C@H](C(=O)O)C(C)C [P34] (H-DEGRQKFVRFQELAV-OH; N-terminus and C-terminus assumed)
10000 µg/mL (≈ 5400 µM)	CC(C)C[C@H](NC(=O)[C@H](C)NC(=O)[C@H](CCC(N)=O)NC(=O)[C@H](Cc1c[nH]cn1)NC(=O)[C@H](CO)NC(=O)[C@H](Cc1ccc(O)cc1)NC(=O)[C@H](Cc1ccccc1)NC(=O)CNC(=O)[C@H](CC(N)=O)NC(=O)[C@@H](N)CCC(N)=O)C(=O)N[C@@H](Cc1c[nH]cn1)C(=O)N[C@@H](C)C(=O)N[C@@H](Cc1c[nH]c2ccccc12)C(=O)N[C@@H](Cc1c[nH]cn1)C(=O)N[C@@H](CCCNC(=N)N)C(=O)O [P25] (H-QNGFYSHQALHAWHR-OH; N-terminus and C-terminus assumed)
